Assay results: PMC7570662, “In Vivo Pharmacokinetic Analysis Utilizing Non-Targeted and Targeted Mass Spectrometry and In Vitro Assay against Transient Receptor Potential Channels of Maobushisaishinto and Its Constituent Asiasari Radix” (Molecules, 2020)

What was measured:
[1] = Qualitative non-targeted LC-HRMS analysis of AR compounds in rat plasma after oral AR or MBST; type: in vivo; details: for Detection in plasma of rats treated with AR or MBST (non-targeted analysis): po
Description: Extract powders of AR or MBST were suspended in distilled water and orally administered to rats having fasted for approximately 16 h. The dose of AR was set at 2 g/kg, and the MBST doses were set at 1 and 2 g/kg. 1 g/kg MBST contained 578 µg/kg, 147 µg/kg, 226 µg/kg, 426 µg/kg asarinin, sesamin, methyl kakuol, and amide A, respectively. The doses were chosen based on a previous pharmacological study of MBST using rats.
According to previous pharmacokinetic studies of herbal medicines, many of the components were quickly absorbed into the bloodstream, thereby providing the rationale for a sampling time at 1 h. Blood was centrifuged at 1200× g at 4 °C for 30 min to obtain plasma; then, the sample was stored at −80 °C until LC-HRMS analysis. […]
The plasma samples were collected at 1 h after MBST administration in case of both the qualitative (non-targeted) analysis and the quantitative (targeted) analysis.
The plasma samples of AR- or MBST-treated rats collected at 1 h post-administration were pretreated by deproteinization using methanol before the LC-HRMS analysis as follows: 100 µL plasma sample was mixed with 500 µL methanol, and the resultant solution was vortexed for 2 min. The mixture was centrifuged at 7000× g at 4 °C for 5 min. The supernatant was dried using a centrifugal evaporator, and the dried residue was dissolved in 100 μL of the initial LC mobile phase which is composed of 0.1 vol% formic acid in water/acetonitrile (99.9/0.1, v/v) and recentrifuged at 7000× g at 4 °C for 5 min. Finally, a 5 μL aliquot of the supernatant was injected into the LC-HRMS system comprised of an Acquity Ultra-Performance Liquid Chromatography System (Waters, Milford, MA, USA) and a Xevo G2-XS quadrupole time-of-flight MS (Waters) and was chromatographically separated using an ACQUITY UPLC HSS T3 column (2.1 × 150 mm I.D., 1.8-μm particle size; Waters) with an ACQUITY UPLC HSS T3 VanGuard Pre-column (2.1 mm × 5 mm I.D., 1.8-μm particle size; Waters) at 40 °C. The mobile phase consisted of solution A (0.1% formic acid, v/v) and solution B (acetonitrile) with a gradient of solution B (0.1%, 0 min; 99%, 24 min; v/v) at a flow rate of 0.4 mL/min. The analysis of the mass spectrometer fit with an electrospray ionization probe with sensitivity mode was performed for both the positive and negative ion mode. The resolution of the mass spectrometer was set at >20,000. For MS^E experiments, two acquisition functions with different collision energies were created: a low-energy function with a collision energy of 6 eV and a high-energy function with collision energy ranging from 15 to 40 eV.

human TRPV1 = target: T1, human TRPV1 (Homo sapiens, UniProt Q8NER1); assay: Ca2+ influx assay in TRPV1-expressing T-REx-293 cells; type: cell-based; details: 10 µmol/L test compound, relative to 2 µmol/L capsaicin; for activation at 10 µM: T-REx-293, read-out: % of Activation Compared to Positive Control against Each Subfamily of TRP Channel TRPV1
T1 construct: Each full-length human TRPA1, TRPV1, TRPV4, and TRPM8 coding regions were introduced into a pcDNA4/TO vector; expressed in transfected cells; host or cells: T-REx-293 cells (tetracycline-induced, pcDNA4/TO vector)
T1 sequence (Q8NER1 whole entry): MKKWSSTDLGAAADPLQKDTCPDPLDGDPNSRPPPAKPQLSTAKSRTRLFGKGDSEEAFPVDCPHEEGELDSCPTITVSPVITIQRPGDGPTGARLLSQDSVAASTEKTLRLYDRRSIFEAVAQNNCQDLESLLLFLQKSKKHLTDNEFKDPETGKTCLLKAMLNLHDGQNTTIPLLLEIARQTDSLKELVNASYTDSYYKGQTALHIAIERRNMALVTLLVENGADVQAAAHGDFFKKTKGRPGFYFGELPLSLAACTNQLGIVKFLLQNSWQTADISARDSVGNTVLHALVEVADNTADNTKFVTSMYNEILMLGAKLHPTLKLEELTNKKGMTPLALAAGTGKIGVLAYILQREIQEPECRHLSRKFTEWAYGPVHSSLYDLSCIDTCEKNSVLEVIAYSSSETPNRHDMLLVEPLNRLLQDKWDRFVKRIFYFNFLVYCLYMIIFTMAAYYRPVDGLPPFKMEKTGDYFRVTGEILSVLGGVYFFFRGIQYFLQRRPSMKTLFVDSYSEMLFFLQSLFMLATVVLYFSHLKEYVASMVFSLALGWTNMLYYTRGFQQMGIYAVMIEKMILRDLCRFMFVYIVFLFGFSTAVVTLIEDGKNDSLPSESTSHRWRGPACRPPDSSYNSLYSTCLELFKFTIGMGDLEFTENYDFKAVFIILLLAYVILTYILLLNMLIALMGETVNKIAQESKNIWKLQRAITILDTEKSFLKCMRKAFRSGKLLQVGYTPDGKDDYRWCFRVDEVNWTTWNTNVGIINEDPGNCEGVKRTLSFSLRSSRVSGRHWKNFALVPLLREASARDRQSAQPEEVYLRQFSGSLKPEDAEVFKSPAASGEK
Description: Each full-length human TRPA1, TRPV1, TRPV4, and TRPM8 coding regions were introduced into a pcDNA4/TO vector (Thermo Fisher Scientific, Waltham, MA, USA) and transfected into T-REx-293 cells (Thermo Fisher Scientific) to obtain stable cell lines expressing human TRPA1, TRPV1, TRPV4, and TRPM8. Cells were cultured in DMEM with 10% FBS, 4 mmol/L L-glutamine, and penicillin/streptomycin.
Cells were suspended in medium with 1 µg/mL tetracycline and seeded in poly-D-lysine coated 96-well plate at 2.5 × 10^4 cells/well. After overnight culture, the cells were used for Ca^2+ influx assay.
The Ca^2+ influx assay was performed using a FLIPR Calcium 5 Assay Kit (Molecular Devices, Sunnyvale, CA, USA) according to previously reported methods with minor modifications. In brief, cells were incubated with 80 µL Ca^2+-chelating dye dissolved in assay buffer at pH 7.4 (Hanks’ Balanced Salt Solution containing 20 mmol/L of N-2-hydroxyethylpiperazine-N’-2-ethanesulfonic acid) at room temperature for 30 min. The plates were assayed using a FlexStation 3 Microplate Reader (Molecular Devices). The fluorescence intensity was traced entirely for 80 s. The baseline of fluorescence was measured for 20 s before adding 20 µL of test compound (final concentration, 10 µmol/L). The response was expressed as percentage activation using the relative fluorescence units (RFU) (% activation = 100 × ((RFUmax − RFUbaseline)/RFUbaseline) − 100). Furthermore, the activities of each test compound against several subfamilies of TRP channels were represented as the relative enhancement of Ca^2+ influx of each positive control, indicated as follows: 20 µmol/L of allyl isothiocyanate (an agonist of TRPA1), 2 µmol/L of capsaicin (an agonist of TRPV1), 4 µmol/L of GSK1016790A (an agonist of TRPV4), and 20 µmol/L of icilin (an agonist of TRPM8). The dose–response curve was fitted to the sigmoidal dose-response equation (top, the max response of each compound), and EC50 values were calculated using GraphPad Prism 7 software (GraphPad, San Diego, CA, USA).

CCC(=O)c1cc2c(cc1OC)OCO2 [Methyl kakuol]
AR-Treated Rat Plasma (detection of compound) ([1]; rat plasma 1 h after oral 2 g/kg AR, n = 1, LC-HRMS): + (The number of plus signs represents the sample number in which the compound was detected among AR-treated rat plasma (n = 1) and MBST-treated rat plasma (n = 3))
MBST-Treated Rat Plasma (detection of compound) ([1]; rat plasma 1 h after oral 2 g/kg MBST, n = 3, LC-HRMS): + + + (The number of plus signs represents the sample number in which the compound was detected among AR-treated rat plasma (n = 1) and MBST-treated rat plasma (n = 3))
Metabolites found in AR- or MBST-treated plasma ([1]; rat plasma, non-targeted LC-HRMS, phase I and II metabolite exploration): metabolized into a sulfate conjugate and a dehydrogenated + sulfate conjugate form
% of Activation Compared to Positive Control against Each Subfamily of TRP Channel TRPV1 (human TRPV1): 0.1%

C/C=C/C=C\CC/C=C/C=C/C(=O)NCC(C)C [Amide A, (2E,4E,8Z,10E)-N-isobutyl-2,4,8,10-dodecatetraenamide]
Metabolites found in AR- or MBST-treated plasma ([1]; rat, in vivo): metabolized into an alkylated and a water adducted + alkylated form
activation at 10 µM (human TRPV1): 0.7%

c1cc2c(cc1[C@H]1OC[C@H]3[C@@H]1CO[C@H]3c1ccc3c(c1)OCO3)OCO2 [Asarinin, (−)-Asarinin]
Detection in plasma of rats treated with AR or MBST (non-targeted analysis) ([1]; rat, in vivo): not detected
activation at 10 µM (human TRPV1): -0.4%

c1cc2c(cc1[C@H]1OC[C@H]3[C@@H]1CO[C@@H]3c1ccc3c(c1)OCO3)OCO2 [Sesamin]
Detection in plasma of rats treated with AR or MBST (non-targeted analysis) ([1]; rat, in vivo): not detected
activation at 10 µM (human TRPV1): -0.1%
